Here are results for seven molecules from paper PMC7527816, “Molecular basis for the bifunctional Uba4–Urm1 sulfur‐relay system in tRNA thiolation and ubiquitin‐like conjugation” (The EMBO Journal, 2020).

As a reminder, the stoichiometry N is the number of molecules, sites or subunits per partner or assembly.

For data set [1], the target named is T1, CtUba4-CtUrm1 (Thermochaetoides thermophila, UniProt G0SC54).
T1 construct: gene uba4; full-length CtUba4 (1-444) plus CtUrm1, both from E. coli, tags TEV-cleaved (GST kept on CtUrm1 in pull-down); with Ubiquitin-related modifier 1
The experiment in a line: GST pull-down of CtUba4 with GST-CtUrm1 (nucleotide-stabilised complex). Conditions: 1 mM nucleotide, 2 mM MgCl2, pH 6.0, 37 °C. The data set is classed as binding.

The target of the next data set is T2, CtUba4 AD (Thermochaetoides thermophila, UniProt G0SC54).
T2 construct: gene uba4; adenylation domain aa 1-290, E. coli, His6-GST tag TEV-cleaved, dimer
The experiment in a line: thermal shift assay (SYPRO Orange). The data set is classed as binding. Particulars: 1 mM AMP, 2 mM MgCl2, 2 mM DTT, pH 7.5.

The target of the next data set is T3, CtUba4 (full length) (Thermochaetoides thermophila, UniProt G0SC54).
T3 construct: gene uba4; full length aa 1-444, codon-optimised, E. coli BL21(DE3) pRARE, His6 or His6-GST tag TEV-cleaved, homodimer
The experiment in a line: thermal shift assay (SYPRO Orange). The format is binding. Particulars: 1 mM AMP, 2 mM MgCl2, 2 mM DTT, pH 7.5.

Data set [2] concerns the target T4, ADlinker 1-321 (with CtUrm1) (Thermochaetoides thermophila, UniProt G0SC54).
T4 construct: gene uba4; adenylation domain plus complete linker, aa 1-321, E. coli; assayed with CtUrm1; with Ubiquitin-related modifier 1
T4 sequence (G0SC54 1-321): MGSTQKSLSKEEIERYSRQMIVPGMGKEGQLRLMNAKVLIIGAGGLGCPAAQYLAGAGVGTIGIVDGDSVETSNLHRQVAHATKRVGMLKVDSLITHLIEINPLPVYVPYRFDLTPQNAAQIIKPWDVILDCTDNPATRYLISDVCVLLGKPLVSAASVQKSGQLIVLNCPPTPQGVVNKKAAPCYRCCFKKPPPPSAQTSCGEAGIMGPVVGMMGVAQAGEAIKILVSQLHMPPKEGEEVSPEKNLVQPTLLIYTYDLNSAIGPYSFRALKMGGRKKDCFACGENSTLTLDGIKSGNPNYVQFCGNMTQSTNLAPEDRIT
T4 sequence (G0SE11 1-110 partner): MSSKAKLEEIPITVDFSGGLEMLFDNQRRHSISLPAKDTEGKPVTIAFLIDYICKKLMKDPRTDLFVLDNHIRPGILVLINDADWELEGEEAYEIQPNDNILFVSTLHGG
In words: pyrophosphate release (fluorometric kit); Malachite Green phosphate. The format is biochemical. Particulars: 20 μM ATP, CtUrm1 7.5 μM, 0.5 mM MgCl2, pH 6.0, 37 °C.

In data set [3] the target is T5, CtUba4-CtUrm1 (Thermochaetoides thermophila, UniProt G0SC54, N307A/M308A).
T5 construct: gene uba4; full-length CtUba4 (1-444) plus CtUrm1, both from E. coli, tags TEV-cleaved (GST kept on CtUrm1 in pull-down); with Ubiquitin-related modifier 1
T5 sequence (G0SC54 entry or part of it N307A/M308A, one chain of several): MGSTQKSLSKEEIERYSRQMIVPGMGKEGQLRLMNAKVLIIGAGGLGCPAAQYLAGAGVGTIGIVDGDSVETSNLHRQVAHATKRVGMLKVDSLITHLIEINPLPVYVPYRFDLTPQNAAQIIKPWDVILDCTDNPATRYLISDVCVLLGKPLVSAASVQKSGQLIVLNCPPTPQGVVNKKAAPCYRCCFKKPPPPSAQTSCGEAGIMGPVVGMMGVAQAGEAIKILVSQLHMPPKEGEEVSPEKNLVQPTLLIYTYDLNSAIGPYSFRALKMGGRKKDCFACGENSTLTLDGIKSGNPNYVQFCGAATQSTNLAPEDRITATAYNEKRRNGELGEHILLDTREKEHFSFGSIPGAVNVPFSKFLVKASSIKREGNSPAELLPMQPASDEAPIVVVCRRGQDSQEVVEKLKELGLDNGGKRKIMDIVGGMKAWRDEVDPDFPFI
Described as above. Particulars: 20 μM ATP, CtUrm1 7.5 μM, 0.5 mM MgCl2, pH 6.0, 37 °C. The format is biochemical.

Data set [4] has as its target T1, CtUba4-CtUrm1. The data set is described as above. The format is biochemical. Conditions: 20 μM ATP, CtUrm1 7.5 μM, 0.5 mM MgCl2, pH 6.0, 37 °C.
Data set [5] concerns the molecule itself. The experiment in a line: SEC + SEC-MALS; SEC profiles and static light scattering (RALS/LALS) after Superdex 75 10/300 GL; 1 mg/ml; 20 mM Tris pH 7.5, 150 mM NaCl, 1 mM DTT. (Size exclusion chromatography separates by hydrodynamic size, large species first.)
Data set [6] concerns the molecule itself. The experiment in a line: crystal structure; apo full-length CtUba4, no nucleotide; 50 mM HEPES pH 6.9-7.0, PEG 4000, 21°C; 2.2 Å.
Data set [7] concerns the molecule itself. In words: crystal structure; CtUba4 C202K, CtUrm1 and ATP (1.00:1.25:2.25) incubated in 100 mM MES pH 6.0, 100 mM NaCl, 2 mM MgCl2 at 37°C for 30 min, complex isolated on Superdex 200 Increase; crystals in 0.1 M HEPES pH 7.5, 20% PEG 3350; 3.15 Å.

Residue numbers refer to the chain shown, from its start. Names may count otherwise.

On to `Nc1ncnc2c1ncn2[C@@H]1O[C@H](COP(=O)(O)OP(=O)(O)NP(=O)(O)O)[C@@H](O)[C@H]1O` [AMP-PNP], for which the “GST pull-down of CtUba4 with GST-CtUrm1 (nucleotide-stabilised complex)” value on CtUba4-CtUrm1 [1] is “complex is stabilized most efficiently in the presence of ATP and AMP‐PNP”.

With `Nc1ncnc2c1ncn2[C@@H]1O[C@H](COP(=O)(O)O)[C@@H](O)[C@H]1O` [AMP], the melting temperature entry at CtUba4 AD is “AMP increased the thermal stability of full‐length Uba4 and the AD alone”; on CtUba4 (full length), “AMP increased the thermal stability of full‐length Uba4 and the AD alone”.

In the case of `Nc1ncnc2c1ncn2[C@@H]1O[C@H](COP(=O)(O)OP(=O)(O)OP(=O)(O)O)[C@@H](O)[C@H]1O` [ATP], the “pyrophosphate release (fluorometric kit); Malachite Green phosphate” value was “it stimulates the ATP hydrolysis activity of the AD in the presence of Urm1” in data set [2]; “mutations of the linker residues Asn307 and Met308” at CtUba4-CtUrm1 [3]; “ATP hydrolysis capacity of CtUba4 WT and mutants in the presence of CtUrm1” on CtUba4-CtUrm1 [4].

B1: CtUba4 rhodanese-like domain (319-444) (domain or fragment, Chaetomium thermophilum, UniProt G0SC54 319-444, looked up)
chain: RITATAYNEKRRNGELGEHILLDTREKEHFSFGSIPGAVNVPFSKFLVKASSIKREGNSPAELLPMQPASDEAPIVVVCRRGQDSQEVVEKLKELGLDNGGKRKIMDIVGGMKAWRDEVDPDFPFI
notes: Uba4 of Chaetomium thermophilum, UniProt G0SC54, rhodanese-like domain residues 319-444; also called CtUba4 RHD; RHD; source: E. coli BL21(DE3) pRARE, purified (Ni-NTA, TEV cleavage, SEC Superdex 75); not shown: His6, N-terminal, cleaved; GST, N-terminal, cleaved
Take B1: the “stoichiometry N” value in data set [5] stood at 2.

B2: CtUba4 adenylation domain (1-290) (domain or fragment, Chaetomium thermophilum, UniProt G0SC54 1-290, looked up)
chain: MGSTQKSLSKEEIERYSRQMIVPGMGKEGQLRLMNAKVLIIGAGGLGCPAAQYLAGAGVGTIGIVDGDSVETSNLHRQVAHATKRVGMLKVDSLITHLIEINPLPVYVPYRFDLTPQNAAQIIKPWDVILDCTDNPATRYLISDVCVLLGKPLVSAASVQKSGQLIVLNCPPTPQGVVNKKAAPCYRCCFKKPPPPSAQTSCGEAGIMGPVVGMMGVAQAGEAIKILVSQLHMPPKEGEEVSPEKNLVQPTLLIYTYDLNSAIGPYSFRALKMGGRKKDCFACGENSTLT
notes: Uba4 of Chaetomium thermophilum, UniProt G0SC54, adenylation domain residues 1-290; source: E. coli BL21(DE3) pRARE, purified (Ni-NTA, TEV cleavage, SEC); not shown: His6, N-terminal, cleaved; GST, N-terminal, cleaved
Consider B2, for which the “stoichiometry N” value in data set [5] is 2.

B3: Chaetomium thermophilum Uba4 (ubiquitin-like protein activator 4), full length, wild type (enzyme, UniProt G0SC54 1-444, looked up)
chain: MGSTQKSLSKEEIERYSRQMIVPGMGKEGQLRLMNAKVLIIGAGGLGCPAAQYLAGAGVGTIGIVDGDSVETSNLHRQVAHATKRVGMLKVDSLITHLIEINPLPVYVPYRFDLTPQNAAQIIKPWDVILDCTDNPATRYLISDVCVLLGKPLVSAASVQKSGQLIVLNCPPTPQGVVNKKAAPCYRCCFKKPPPPSAQTSCGEAGIMGPVVGMMGVAQAGEAIKILVSQLHMPPKEGEEVSPEKNLVQPTLLIYTYDLNSAIGPYSFRALKMGGRKKDCFACGENSTLTLDGIKSGNPNYVQFCGNMTQSTNLAPEDRITATAYNEKRRNGELGEHILLDTREKEHFSFGSIPGAVNVPFSKFLVKASSIKREGNSPAELLPMQPASDEAPIVVVCRRGQDSQEVVEKLKELGLDNGGKRKIMDIVGGMKAWRDEVDPDFPFI
notes: Uba4 of Chaetomium thermophilum, UniProt G0SC54, full length aa 1-444; Expressed from pETM30 (N-terminal His6 and GST) and pETM11 (N-terminal His6); tags cleaved with TEV; Codon-optimised gene; also called CtUba4; CtUba4 FL; source: E. coli BL21(DE3) pRARE, purified (Ni-NTA, TEV cleavage, second Ni-NTA, SEC Superdex 200); not shown: His6, N-terminal, cleaved
Take B3: the “stoichiometry N” value in data set [6] turned out to be 2.

B4: CtUba4 C202K, full length (enzyme, Chaetomium thermophilum, UniProt G0SC54 1-444, looked up)
chain: B3 chain with C202K
notes: Uba4 of Chaetomium thermophilum, UniProt G0SC54, full length aa 1-444 with C202K; With Urm1 and ATP the epsilon-amino group of Lys202 forms a non-hydrolysable iso-peptide bond with Gly111 of Urm1; The RHD is present in the crystals but has no density; source: E. coli BL21(DE3) pRARE, purified (Ni-NTA, TEV cleavage, SEC Superdex 200); not shown: His6, N-terminal, cleaved
Take B4: in [7], the “stoichiometry N” value stood at 2.
